The assay concerns genotype A, "Long" strain RSV. As to the kind of experiment: RSV-A in vitro cytoprotection assay in HEp-2 cells (ATPlite readout of cell viability). Type of assay: cell-based, Human respiratory syncytial virus. The following applies: human respiratory syncytial virus, HEp-2, HEp-2 cells, genotype A “Long” strain RSV, cytoprotection; read-out: Human RSV-A (“Long” strain) EC50. A digest of the protocol: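 HEp-2 cells (8,000/well) given 2-fold compound dilutions in duplicate, then infected with RSV-A Long strain stock; viability read by ATPlite luminescence after 4 days. EC50 derived from cytoprotection; cytotoxicity measured on parallel uninfected plate.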
(ATP-based viability assays read luminescence as a measure of living cells.)
The term EC50 denotes the concentration giving half of the maximal effect. `Cc1cccc(F)c1NC(=O)c1cc2c(s1)-c1ccccc1N(C(=O)c1cccc(-c3cn(C)nc3C3CC3)n1)CC2` [Example 197]: the EC50 was < 400 nM.
To `Cc1cccc(F)c1NC(=O)c1cc2c(s1)-c1ccccc1N(C(=O)c1cccc(-c3cnc(C)n3C3CC3)n1)CC2` [Example 198] belongs < 400 nM; to `Cc1cccc(F)c1NC(=O)c1cc2c(s1)-c1ccccc1N(C(=O)c1cccc(-c3cncn3C3CCC3)n1)CC2` [Example 199], < 400 nM; to `Cc1cccc(F)c1NC(=O)c1cc2c(s1)-c1ccccc1N(C(=O)c1cccc(-c3cnc(C4CC4)n3C3CC3)n1)CC2` [Example 200], < 400 nM.
To `Cc1cccc(F)c1NC(=O)c1cc2c(s1)-c1ccccc1N(C(=O)c1cccc(-c3cncn3C3(C)CC3)n1)CC2` [Example 201] belongs > 800 nM; to `Cc1cccc(F)c1NC(=O)c1cc2c(s1)-c1ccccc1N(C(=O)c1cccc(-c3cnc(C(F)(F)F)n3C3CC3)n1)CC2` [Example 202], < 400 nM.
To `Cc1cccc(F)c1NC(=O)c1cc2c(s1)-c1ccccc1N(C(=O)c1cccc(-c3cncn3-c3ccccc3)n1)CC2` [Example 203] belongs > 800 nM.
As for `COc1ccc(-n2cncc2-c2cccc(C(=O)N3CCc4cc(C(=O)Nc5c(C)cccc5F)sc4-c4ccccc43)n2)cc1` [Example 204], the EC50 was > 800 nM.
On to `Cc1cccc(F)c1NC(=O)c1cc2c(s1)-c1ccccc1N(C(=O)c1cccc(-c3cncn3-c3ccccc3F)n1)CC2` [Example 205], for which the EC50 was > 800 nM.
As for `Cc1cccc(F)c1NC(=O)c1cc2c(s1)-c1ccccc1N(C(=O)c1cccc(-c3c[nH]c4ccccc34)n1)CC2` [Example 207], the 50% effective concentration (EC50) is < 400 nM.
To `Cc1cccc(F)c1NC(=O)c1cc2c(s1)-c1ccccc1N(C(=O)c1cccc(-c3cn(C)c4ccccc34)n1)CC2` [Example 208] belongs > 800 nM; to `Cc1cccc(F)c1NC(=O)c1cc2c(s1)-c1ccccc1N(C(=O)c1cccc(-c3c(C)n[nH]c3C)n1)CC2` [Example 209], < 400 nM; to `Cc1cccc(F)c1NC(=O)c1cc2c(s1)-c1ccccc1N(C(=O)c1cccc(-c3c[nH]nc3C(F)(F)F)n1)CC2` [Example 210], < 400 nM.
To `Cc1cccc(F)c1NC(=O)c1cc2c(s1)-c1ccccc1N(C(=O)c1cccc(-c3c[nH]nc3N3CCOCC3)n1)CC2` [Example 211] belongs > 800 nM; to `Cc1cccc(F)c1NC(=O)c1cc2c(s1)-c1ccccc1N(C(=O)c1cccc(-c3cn[nH]c3-c3ccccc3)n1)CC2` [Example 212], < 400 nM; to `Cc1cccc(F)c1NC(=O)c1cc2c(s1)-c1ccccc1N(C(=O)c1cccc(-c3cn[nH]c3)n1)CC2` [Example 213], < 400 nM.
To `COC(=O)n1cc(-c2cccc(C(=O)N3CCc4cc(C(=O)Nc5c(C)cccc5F)sc4-c4ccccc43)n2)c(C2CC2)n1` [Example 214] belongs < 400 nM; to `Cc1cccc(F)c1NC(=O)c1cc2c(s1)-c1ccccc1N(C(=O)c1cccc(-c3cn(S(C)(=O)=O)nc3C3CC3)n1)CC2` [Example 215], < 400 nM; to `Cc1cccc(F)c1NC(=O)c1cc2c(s1)-c1ccccc1N(C(=O)c1cccc(-c3cnn(S(C)(=O)=O)c3C3CC3)n1)CC2` [Example 216], < 400 nM.
On to `CNC(=O)n1cc(-c2cccc(C(=O)N3CCc4cc(C(=O)Nc5c(C)cccc5F)sc4-c4ccccc43)n2)c(C2CC2)n1` [Example 217], for which the EC50 is < 400 nM.
On to `CNC(=O)n1ncc(-c2cccc(C(=O)N3CCc4cc(C(=O)Nc5c(C)cccc5F)sc4-c4ccccc43)n2)c1C1CC1` [Example 218], for which the EC50 is < 400 nM.
With `Cc1cccc(F)c1NC(=O)c1cc2c(s1)-c1ccccc1N(C(=O)c1cccc(-c3cn(C(=O)N(C)C)nc3C3CC3)n1)CC2` [Example 219], the EC50 lay in the range of 400 to 800 nM.
To `CCS(=O)(=O)n1cc(-c2cccc(C(=O)N3CCc4cc(C(=O)Nc5c(C)cccc5F)sc4-c4ccccc43)n2)c(C2CC2)n1` [Example 220] belongs 400 to 800 nM.

These data come from patent US10759816B2, “Heterocyclic compounds as RSV inhibitors” (Enanta Pharmaceuticals, Inc., priority 2016, dated 2020).
